“And” between values parts separate entries of the source, which are not always exact repeats. Equal entries are not always repeated.
Key:
Type in all cases: cell-based
DU145 cells [1] = assay: Live cell microscopy; details: DU145, increasing concentration over 24 h
Experimental: 5×10^4 DU145 cells were seeded in 8-well chamber slides (Ibidi, Martinsried, Germany). After 24 h, cells were treated with the denoted concentration (μM) IE-8 and intracellular drug accumulation was imaged at 3 h intervals on a live cell microscope (Visitron Systems, Puchheim, Germany) using a 40× oil immersion DIC objective and VisiView® software.
LEDs were used for widefield DIC and fluorescence (436/20 nm excitation and 480/40 nm bandpass filter for (CFP) fluorescence illumination (Visitron Systems). Images were taken with a sCMOS 4.2MPxl digital camera.

[2] = system: A2780-cisplatin resistant spheroids; assay: Spheroid diameter measurement; details: for Diameter (μm): 96 h
Experimental: For cell spheroid formation, HCT116-oxaliplatin resistant cells, A2780-cisplatin resistant cells, and HT1080 cells were seeded in Corning® Spheroid opaque-walled 96 well Microplates (ultra-low attachment; Nuclon™ Sphera™, Thermofisher) at densities of 2000 cells/well in 100 μl of cell solution and allowed to grow for 4 days, before any manipulation.
The diameters of spheroid cells were determined using Cell^F Imaging Software. A diameter corresponds to the mean value of one horizontal and one vertical measurement.

γ-H2AX = γ-H2AX immunofluorescence staining; details: DU145, 1.2 μM 18 h then 60 μM cisplatin 1 h
Experimental: For Stat3, pStat3 staining, 2.5×10^4 cells/ml were plated on 13-mm glass cover slip (VWR) in 24 well plates, allowed to adhere and processed the next day. Cells were treated with IE-8 for 18 h, and subsequently washed in ice cold PBS and fixed with 2% paraformaldehyde PFA (Alfa Aesar) for 10 min at room temperature, followed by permeabilization with PBS containing 0.5% Triton X-100 for 10 min. Cells were blocked in PBS 5% BSA for 1 h at ambient temperature. Respective proteins were identified by incubation for 4 h with anti-Stat3 and anti-pStat3 rabbit polyclonal antibodies (1:1000, Cell signalling) or anti-phospho-Histone H2A.X mouse monoclonal (1:500; Millipore) diluted in a PBS 1% BSA buffer. Cells were incubated with a secondary fluorescent conjugated antibody Alexa Fluor 488 (1:500; Life Technologies) for 2 h at RT. Nuclei were stained using propidium iodide (2 μg/ml; Sigma-Aldrich) and mounted on glass slides with mounting medium (Dako).
To quantify γ-H2AX foci from images obtained using the protocol above, the program CellProfiler was utilized. Each cell nucleus was identified and the number of foci within computationally counted. The number of foci was taken as an average from the first 30 cells measured with a detection threshold of 0.3.

DU145 cells [3] = assay: SRB growth inhibition assay for radiosensitization; details: 18 h pretreatment, then irradiation
Experimental: Stock cultures were trypsinised and 2500 cells were seeded into each well of 96-well, flat-bottomed microtiter plates, in a volume of 200 μl and left to adhere overnight at 37° C. The desired concentrations of IE-8 or curcumin were prepared in culture medium immediately before use. Medium in wells was removed and 200 μl of drug medium mixture was added. Three replicates were used for each drug concentration. One solvent control lane was included in each experiment. Plates were incubated for 18 h at 37° C. At the end of the drug treatment, the media was replaced with 200 μl of fresh media. Subsequently the plates were irradiated at 0, 2, 4 and 6 Gy. The plates were incubated for three days in a humidified incubator at 37° C. with 5% CO2. The media in the wells was removed and 100 μl of ice-cold 10% (wt/vol) trichloroethanoic acid (TCA) was added per well, to fix the cells. […] Plates were left at room temperature for 20 minutes, and the optical density (OD) at 540 nm was determined using a microplate reader (Thermo). Growth inhibition was expressed as the fraction of control A540 (surviving fraction) and calculated from the following equation; fraction of control A540=OD of untreated control at each radiation dose. The mean surviving fraction for each drug concentration for each radiation dose was calculated.

DU145 cells [4] = assay: Colony formation assay with paclitaxel; details: 0.4 μM IE-8 + 0.003 μM paclitaxel, 10 days
Experimental: DU145 cells were seeded at 1000 cells/well in 6-well plates and allowed to adhere overnight. Cells were treated after seeding with IE-8, paclitaxel, and a combination thereof, and incubated without any further manipulation for 10 days until the control (untreated) wells had <200 colonies formed. Colonies were fixed with ice-cold 100% Methanol, washed with PBS, stained with crystal violet (0.5% w/v) for 5 minutes and counted using a colony-counting function of the Fusion 15.12 software.

Question: Which cytoplasmic vacuolisation (DU145 cells [1]) does the source give for `COc1cc(/C=C2\CN(c3ccccc3)C/C(=C\c3cc(OC)c(OC)c(OC)c3)C2=O)cc(OC)c1OC` [IE-8, 3,5-Di(3,4,5-trimethoxybenzylidene)-1-phenylpiperidin-4-one] here?
Answer: induced cytoplasmic vacuolisation

Question: What about the spheroid size ([2]; 10 μM IE-8, 96 hours) of the same compound?
Answer: markedly decreases the size of the spheroid

Question: What about the “Diameter (μm)” value ([2]; IE-8 1.0 μM) of the same compound?
Answer: 1176.0 μm

Question: What about the “Diameter (μm)” value ([2]; IE-8 2.0 μM) of the same compound?
Answer: 1037.0 μm

Question: What about the “Diameter (μm)” value ([2]; IE-8 3.0 μM) of the same compound?
Answer: 990.9 μm

Question: What about the “Diameter (μm)” value ([2]; IE-8 4.0 μM) of the same compound?
Answer: 820 μm and 819.7 μm

Question: And the “Diameter (μm)” value ([2]; IE-8 5.0 μM)?
Answer: 619.8 μm

Question: What about the “DNA-damage response to cisplatin (γ-H2Ax induction)” value (γ-H2AX) of the same compound?
Answer: enhanced

Question: What about the “radiosensitization (cell survival, SRB)” value (DU145 cells [3]) of the same compound?
Answer: more efficient at reducing cell survival

Question: And the colony formation (DU145 cells [4])?
Answer: no colonies were formed

— US11964943B2, “3,5-diarylidenyl-n-substituted-piperid-4-one-derived inhibitors of Stat3 pathway activity and uses thereof” (priority 2017, dated 2024)
